Measured values taken from patent EP1167342A1, “Novel substituted nitrocatechols, their use in the treatment of some central and peripheral nervous system disorders and pharmaceutical compositions containing them” (Portela & Ca., S.A., priority 2000, dated 2002).

Experiments:
[1] = target: T1, COMT (Homo sapiens, UniProt P21964); experiment: COMT activity in intact SK-N-SH cells (methylation of adrenaline to metanephrine, HPLC with electrochemical detection); assay type: cell-based; conditions: concentration of test compound 100 nM, means ±SEM of n=4-8
T1 construct: COMT activity was evaluated in cell monolayers by the ability to methylate adrenaline; host or cells: SK-N-SH
T1 sequence (P21964 1-271): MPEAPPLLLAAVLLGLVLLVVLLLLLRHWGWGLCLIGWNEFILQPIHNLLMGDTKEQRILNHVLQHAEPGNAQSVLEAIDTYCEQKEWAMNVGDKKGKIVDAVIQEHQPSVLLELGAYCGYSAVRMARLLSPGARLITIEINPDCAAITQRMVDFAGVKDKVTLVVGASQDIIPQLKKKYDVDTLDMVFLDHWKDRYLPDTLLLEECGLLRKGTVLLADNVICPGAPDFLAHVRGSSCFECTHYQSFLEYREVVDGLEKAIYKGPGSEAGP

[2] = system: Liver COMT; experiment: Ex vivo COMT activity in mouse liver homogenates after administration of test compound by gastric tube; parameters: species or system NMRI mice; conditions: for Liver COMT (% of control) 1h / Liver COMT (% of control) 6h: homogenates of mice liver, dose not given, means±S.E.M. of 4-8 experiments; for Liver COMT (% of control) 1h: 1 h after administration by gastric tube; for Liver COMT (% of control) 6h: 6 h after administration by gastric tube; for potency upon liver COMT compared with brain COMT: mice, after oral administration, statement in words
[3] = system: Brain COMT; experiment: Ex vivo COMT activity in mouse brain homogenates after administration of test compound by gastric tube; parameters: species or system NMRI mice; conditions: for Brain COMT (% of control) 1h / Brain COMT (% of control) 6h: homogenates of mice brain, dose not given, means±S.E.M. of 4-8 experiments; for Brain COMT (% of control) 1h: 1 h after administration by gastric tube; for Brain COMT (% of control) 6h: 6 h after administration by gastric tube; for activity in the brain: conclusion, statement in words

| Compound | COMT activity (% of control) [1] | Liver COMT (% of control) 1h [2] | Liver COMT (% of control) 6h [2] | Brain COMT (% of control) 1h [3] | Brain COMT (% of control) 6h [3] | potency upon liver COMT compared with brain COMT [2] | activity in the brain [3] |
| --- | --- | --- | --- | --- | --- | --- | --- |
| Cl.Cl.O=C(CCN1CCN(C(=O)c2ccccc2)CC1)c1cc(O)c(O)c([N+](=O)[O-])c1 [Compound 29, 3-(4-Benzoyl-piperazin-1-yl)-1-(3,4-dihydroxy-5-nitro-phenyl)-propan-1-one dihydrochloride] | 1.5±0.6 % of control |  |  |  |  |  |  |
| Cl.O=C(CCN1CCCCCC1)c1cc(O)c(O)c([N+](=O)[O-])c1 [Compound 20, 3-Azepan-1-yl-1-(3,4-dihydroxy-5-nitro-phenyl)-propan-1-one hydrochloride] | 3.6±0.3 % of control | 39.0±2.0 % of control | 64.0±12.0 % of control | 106.0±9.0 % of control | 125.0±5.0 % of control |  |  |
| Cl.Cl.O=C(CN1CCN(c2cccc(C(F)(F)F)c2)CC1)c1cc(O)c(O)c([N+](=O)[O-])c1 [Compound 13, 1-(3,4-Dihydroxy-5-nitro-phenyl)-2-[4-(3-trifluoromethyl-phenyl)-piperazin-1-yl]-ethanone dihydrochloride] | 7.7±0.6 % of control | 49.7±3.2 % of control | 46.7±2.9 % of control | 76.0±9.0 % of control | 100.0±10.0 % of control |  |  |
| Cl.O=C(CCN1CCc2ccccc2C1)c1cc(O)c(O)c([N+](=O)[O-])c1 [Compound 27, 3-(3,4-Dihydro-1H-isoquinolin-2-yl)-1-(3,4-dihydroxy-5-nitro-phenyl)-propan-1-one hydrochloride] | 11.4±4.0 % of control |  |  |  |  |  |  |
| Cl.O=C(CCN1CCCCCCC1)c1cc(O)c(O)c([N+](=O)[O-])c1 [Compound 16, 3-Azocan-1-yl-1-(3,4-dihydroxy-5-nitro-phenyl)-propan-1-one hydrochloride] | 3.2±0.2 % of control | 22.1±3.4 % of control | 71.7±21.6 % of control | 25.0±13.0 % of control | 95.0±12.0 % of control | equally potent in inhibiting liver and brain COMT activity |  |
| COc1ccc(C(=O)N2CCN(CCC(=O)c3cc(O)c(O)c([N+](=O)[O-])c3)CC2)cc1.Cl.Cl [Compound 30, 1-(3,4-Dihydroxy-5-nitro-phenyl)-3-[4-(4-methoxy-benzoyl)-piperazin-1-yl]-propan-1-one dihydrochloride] | 1.9±1.3 % of control |  |  |  |  |  |  |
| Cl.Cl.O=C(CCN1CCN(c2ccccc2Cl)CC1)c1cc(O)c(O)c([N+](=O)[O-])c1 [Compound 22, 3-[4-(2-Chloro-phenyl)-piperazin-1-yl]-1-(3,4-dihydroxy-5-nitro-phenyl)-propan-1-one dihydrochloride] | 0.0±0.0 % of control | 54.2±7.5 % of control | 71.7±0.4 % of control | 94.0±3.0 % of control | 96.0±18.0 % of control |  |  |
| Cc1ccc(SCC(=O)c2cc(O)c(O)c([N+](=O)[O-])c2)cc1 [Compound 28, 1-(3,4-Dihydroxy-5-nitro-phenyl)-2-p-tolylsulphanyl-ethanone] | 10.0±2.6 % of control |  |  |  |  |  |  |
| CC1CCCCN1CCC(=O)c1cc(O)c(O)c([N+](=O)[O-])c1.Cl (stereo not shown) [Compound 26, 1-(3,4-Dihydroxy-5-nitro-phenyl)-3-(2-methyl-piperidin-1-yl)-propan-1-one hydrochloride] | 4.8±0.4 % of control | 18.3±2.9 % of control | 55.2±4.7 % of control | 69.8±3.2 % of control | 89.6±13.4 % of control |  |  |
| CCOC(=O)C1CCN(CCC(=O)c2cc(O)c(O)c([N+](=O)[O-])c2)CC1.Cl [Compound 17, 1-[3-(3,4-Dihydroxy-5-nitro-phenyl)-3-oxo-propyl]-piperidine-4-carboxylic acid ethyl ester hydrochloride] | 7.7±0.5 % of control | 36.8±2.3 % of control | 69.6±8.9 % of control | 96.0±5.0 % of control | 109.0±14.0 % of control |  |  |
| Cl.O=C(CC(c1ccccc1)N1CCCC1)c1cc(O)c(O)c([N+](=O)[O-])c1 (stereo not shown) [Compound 4, 1-(3,4-Dihydroxy-5-nitro-phenyl)-3-phenyl-3-pyrrolidin-1-yl-propan-1-one hydrochloride] | 23.8±2.9 % of control | 12.0±1.8 % of control | 14.4±4.3 % of control | 55.0±8.7 % of control | 49.6±4.9 % of control |  |  |
| Cl.O=C(CC(c1ccccc1)N1CCCCC1)c1cc(O)c(O)c([N+](=O)[O-])c1 (stereo not shown) [Compound 3, 1-(3,4-Dihydroxy-5-nitro-phenyl)-3-phenyl-3-piperidin-1-yl-propan-1-one hydrochloride] | 7.2±1.9 % of control | 13.5±3.2 % of control | 13.6±3.2 % of control | 81.0±11.0 % of control | 71.0±11.0 % of control | much more potent upon liver COMT than brain COMT | limited activity in the brain |
| Cl.O=C(CN1CCCCCC1)c1cc(O)c(O)c([N+](=O)[O-])c1 [Compound 1, 2-Azepan-1-yl-1-(3,4-dihydroxy-5-nitro-phenyl)-ethanone hydrochloride] | 4.3±0.6 % of control | 40.8±6.4 % of control | 49.9±2.2 % of control | 45.0±15.0 % of control | 102.0±19.0 % of control |  |  |
| CC1CCCCN1CC(=O)c1cc(O)c(O)c([N+](=O)[O-])c1.Cl (stereo not shown) [Compound 6, 1-(3,4-Dihydroxy-5-nitro-phenyl)-2-(2-methyl-piperidin-1-yl)-ethanone hydrochloride] | 12.2±1.7 % of control | 57.6±5.8 % of control | 99.9±10.3 % of control | 37.0±3.3 % of control | 66.0±2.6 % of control |  |  |
| Cl.Cl.O=C(CCN1CCN(c2cccc(C(F)(F)F)c2)CC1)c1cc(O)c(O)c([N+](=O)[O-])c1 [Compound 18, 1-(3,4-Dihydroxy-5-nitro-phenyl)-3-[4-(3-trifluoromethyl-phenyl)-piperazin-1-yl]-propan-1-one dihydrochloride] | 4.2±0.2 % of control | 18.5±6.8 % of control | 26.3±3.9 % of control | 86.0±14.0 % of control | 86.0±11.0 % of control | much more potent upon liver COMT than brain COMT | limited activity in the brain |
| O=C(COc1ccccc1)c1cc(O)c(O)c([N+](=O)[O-])c1 [Compound 8, 1-(3,4-Dihydroxy-5-nitro-phenyl)-2-phenoxy-ethanone] | 8.6±0.1 % of control | 22.0±3.7 % of control | 49.6±9.4 % of control | 61.0±4.0 % of control | 104.4±6.2 % of control |  |  |
| Cl.Cl.Cl.Cl.O=C(CCN1CCN(c2ncccn2)CC1)c1cc(O)c(O)c([N+](=O)[O-])c1 [Compound 23, 1-(3,4-Dihydroxy-5-nitro-phenyl)-3-(4-pyrimidin-2-yl-piperazin-1-yl)-propan-1-one tetrahydrochloride] | 4.4±0.9 % of control | 30.0±2.5 % of control | 56.3±6.0 % of control | 87.0±6.0 % of control | 123.0±12.0 % of control |  |  |
| Cl.O=C(CCN1CCCCC1)c1cc(O)c(O)c([N+](=O)[O-])c1 [Compound 2, 1-(3,4-Dihydroxy-5-nitro-phenyl)-3-piperidin-1-yl-propan-1-one hydrochloride] | 7.5±0.6 % of control | 24.6±4.8 % of control | 56.9±17.7 % of control | 80.0±11.0 % of control | 95.0±12.0 % of control | much more potent upon liver COMT than brain COMT | limited activity in the brain |
| O=C(COc1ccc2ccccc2c1)c1cc(O)c(O)c([N+](=O)[O-])c1 [Compound 10, 1-(3,4-Dihydroxy-5-nitro-phenyl)-2-(naphthalen-2-yloxy)-ethanone] | 2.0±0.1 % of control | 17.3±2.7 % of control | 38.7±4.7 % of control | 83.0±5.0 % of control | 119.0±13.0 % of control | much more potent upon liver COMT than brain COMT | limited activity in the brain |
